Reference: US11485742B2, “2-azaspiro[3.4]octane derivatives as M4 agonists” (NOVARTIS AG, priority 2019, dated 2022)

What was measured:
[1] = target: T1, Cloned human M1 receptor (CHRM1) (Homo sapiens, UniProt P11229); experiment: CHRM1 Ca++ Flux Assay (HEK293 M1 cells, agonist mode); assay type: cell-based; conditions: for M1 FDSS PA % / Emax: Percent Activity (PA); for EC50: geometric mean if tested more than once, read-out: M1 FDSS EC50; for Emax: read-out: M1 FDSS PA %
T1 construct: expressed in transfected cells; host or cells: HEK293
T1 sequence (P11229 1-460): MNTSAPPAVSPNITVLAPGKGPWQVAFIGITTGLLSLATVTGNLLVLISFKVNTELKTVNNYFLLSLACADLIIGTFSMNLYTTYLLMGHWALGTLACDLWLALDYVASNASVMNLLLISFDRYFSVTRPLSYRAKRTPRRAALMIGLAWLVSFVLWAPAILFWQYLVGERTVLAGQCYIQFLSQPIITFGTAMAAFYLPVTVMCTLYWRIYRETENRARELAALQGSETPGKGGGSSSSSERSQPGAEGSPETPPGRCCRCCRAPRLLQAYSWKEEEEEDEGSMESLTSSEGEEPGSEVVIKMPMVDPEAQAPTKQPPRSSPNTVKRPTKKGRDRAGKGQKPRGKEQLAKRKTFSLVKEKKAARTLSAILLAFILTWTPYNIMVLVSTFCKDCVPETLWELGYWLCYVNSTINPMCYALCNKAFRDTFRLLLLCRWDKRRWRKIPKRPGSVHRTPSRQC
Method: (§1) The above examples were characterized by measuring the intracellular mobilization of Ca^++ ions caused by signaling events mediated by the receptor. The Intra-cellular Calcium flux levels were captured by the highly sensitive Ca^++ indicator, Calcium Assay Kit (BD Biosciences; Catalog Number 640178. The fluorescent activity from all receptors were monitored by the fluorescent imager, FDSS 7000EX (Hamamatsu) over a span of 3 minutes. The change in Calcium flux was readily captured upon activation with the muscarinic orthosteric agonist, Carbachol.
Cloned human M1 receptor (CHRM1) was stably expressed in HEK293 cells and were grown and maintained in a monolayer culture with DMEM/High Glucose (Life Technologies) supplemented with 10% Fetal Bovine Serum, 1×Pen-Strep, and 0.5 mg/mL Geneticin in a humidified atmosphere (5% CO2) at 37° C. The cultures were grown to 90% confluency in T150 flasks (Corning) and washed with 1×DPBS and lifted with 0.05% Trypsin (Life Technologies). The cells were then spun (1K rpm, 3 minutes) and frozen using Recovery Cell Culture Freezing Media (Gibco Technologies). Cells were stored in liquid nitrogen and thawed a day before the assay.
Prior to the day of the assay, stable HEK293 M1 cells were thawed and plated on 384 well black walled clear bottom TC treated plates (Greiner Cat #781091) at 25K cells/well with DMEM/High Glucose supplemented with 10% FBS (Hyclone) Pen-Strep (Life Technologies) and kept overnight in a humidified atmosphere (5% CO2) at 37° C. The following day, cells were loaded with 20 uL Ca^++ dye (BD Biosciences) using Loading Buffer (HBSS +Ca/+Mg, 20 mM HEPES) and placed back in cell incubator for a minimum of 1 hour. The dye was replaced with 45 μL Assay Buffer (HBSS −Ca/−Mg, 20 mM HEPES) and kept at room temperature prior to running on cell imager. Compounds were prepared in Assay Buffer and 5 uL was added to the cells. The FDSS 7000EX (Hamamatsu) was used to acquire Ca++ traces for 3 minutes from cells treated with 11 point dose in triplicate in order to generate dose response curves in agonist mode. All compounds were serially diluted in DMSO then prepared in Assay Buffer for Ca^++ flux studies. The dose response curves were generated from the average of triplicate wells obtained from each data point and used a non-linear regression of four parameter dose response algorithm. The Percent Activity (PA) was measured to EC100 of Carbachol.
(§2) If an Example was tested more than once in an assay, then the values below represent the geometric mean of the results from each independent experiment.

[2] = target: T2, human cloned CHRM4 receptor (Homo sapiens, UniProt P08173); experiment: CHRM4 Ca++ Flux Assay (M4_CHO cells, agonist mode); assay type: cell-based; conditions: for M4 FDSS PA % / Emax: Percent Activity (PA); for EC50: geometric mean if tested more than once, read-out: M4 FDSS EC50; for Emax: read-out: M4 FDSS PA %
T2 construct: expressed in transfected cells; host or cells: CHO-K1 (M4_CHO)
T2 sequence (P08173 1-479): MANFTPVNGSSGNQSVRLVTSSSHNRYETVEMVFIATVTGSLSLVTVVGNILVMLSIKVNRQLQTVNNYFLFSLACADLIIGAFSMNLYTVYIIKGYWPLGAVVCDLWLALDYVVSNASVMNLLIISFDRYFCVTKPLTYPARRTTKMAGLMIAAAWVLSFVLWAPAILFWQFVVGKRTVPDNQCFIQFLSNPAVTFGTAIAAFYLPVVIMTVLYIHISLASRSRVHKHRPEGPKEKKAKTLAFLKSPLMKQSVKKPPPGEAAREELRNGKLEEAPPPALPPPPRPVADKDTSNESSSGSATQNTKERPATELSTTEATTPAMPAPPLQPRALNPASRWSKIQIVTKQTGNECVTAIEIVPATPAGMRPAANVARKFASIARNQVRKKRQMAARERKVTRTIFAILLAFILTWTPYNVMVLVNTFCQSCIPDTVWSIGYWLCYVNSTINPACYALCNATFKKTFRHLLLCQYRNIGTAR
Method: as §1
CHO-K1 cells stably expressing the human cloned CHRM4 receptor (M4_CHO cells) were grown and maintained in a monolayer culture with F12/HAM (Life Technologies) supplemented with 10% Fetal Bovine Serum, 1X Pen-Strep, and 0.4 mg/mL Geneticin in a humidified atmosphere (5% CO2) at 37° C. The cultures were grown to 80-90% confluency in T150 flasks (Corning) and washed with 1×DPBS then lifted with 0.05% Trypsin (Life Technologies). The cells were harvested in growth media then spun (1K rpm, 3 minutes) and cryopreserved using Recovery Cell Culture Freezing Media (Gibco Technologies). Cells were stored in liquid nitrogen and thawed a day before the assay.
Prior to the day of the assay, stable M4_CHO cells were thawed and plated on 384 well black walled clear bottom TC treated plates (Greiner Cat #781091) at 12K cells/well using F12/HAM Media supplemented with 10% FBS (Life Technologies) and kept overnight in a humidified atmosphere (5% CO2) at 37° C. The next day, cells were loaded with 20 μL Ca^++ dye (BD Biosciences) using Loading Buffer (HBSS +Ca/+Mg, 20 mM HEPES, 2.5 mM Probenecid) and placed back in cell incubator for a minimum of 1 hour. After incubation, the dye was replaced with 45 μL Assay Buffer (HBSS −Ca/−Mg, 20 mM HEPES, 2.5 mM Probenecid) supplemented with 20 μM ATP (Sigma Aldrich) and kept at room temperature in the dark for 60 minutes before running on a cell imager. The FDSS 7000EX (Hamamatsu) was used to capture Ca^++ traces for a span of 3 minutes from cells treated with 11 point dose of compound in triplicate in order to generate dose response curves in agonist mode. All compounds were serially diluted in DMSO then prepared in Assay Buffer for Ca^++ flux studies. The dose response curves were generated from the average of triplicate wells obtained from each data point and used a non-linear regression of four parameter dose response algorithm. The Percent Activity (PA) was measured to EC100 of Carbachol.
as §2

Row | M1 FDSS PA % [1] | EC50 [1] | M4 FDSS PA % [2] | EC50 [2] | Emax [1] | Emax [2] | Compound
1 | 72% | 1120 nM | 86% | 51 nM | – | – | CC1(C)C[C@@H](Oc2ccc(F)cc2C2CCN([C@@H]3COC4(C3)CN(c3nnco3)C4)CC2)CO1 (single isomer, unassigned) [Example 2O, (S)-7-(4-(2-(((R)-5,5-dimethyltetrahydrofuran-3-yl)oxy)-5-fluorophenyl)piperidin-1-yl)-2-(1,3,4-oxadiazol-2-yl)-5-oxa-2-azaspiro[3.4]octane or (S)-7-(4-(2-(((S)-5,5-dimethyltetrahydrofuran-3-yl)oxy)-5-fluorophenyl)piperidin-1-yl)-2-(1,3,4-oxadiazol-2-yl)-5-oxa-2-azaspiro[3.4]octane]
2 | – | 424 nM | – | 4 nM | 117% | 77% | Fc1ccc(OC[C@H]2COCCO2)c(C2CCN([C@@H]3COC4(C3)CN(c3ncco3)C4)CC2)c1 [Example 4B, (S)-7-(4-(2-(((R)-1,4-dioxan-2-yl)methoxy)-5-fluorophenyl)piperidin-1-yl)-2-(oxazol-2-yl)-5-oxa-2-azaspiro[3.4]octane]
3 | – | 979 nM | – | 12 nM | 75% | 81% | Fc1ccc(OC2CCOCC2)c(C2CCN([C@@H]3COC4(C3)CN(c3ncco3)C4)CC2)c1 [Example 4E, (S)-7-(4-(5-fluoro-2-((tetrahydro-2H-pyran-4-yl)oxy)phenyl)piperidin-1-yl)-2-(oxazol-2-yl)-5-oxa-2-azaspiro[3.4]octane]
4 | – | 563 nM | – | 27 nM | 84% | 78% | CC(C)(C#N)COc1ccc(F)cc1C1CCN([C@@H]2COC3(C2)CN(c2nnco2)C3)CC1 [Example 1E, (S)-3-(2-(1-(2-(1,3,4-oxadiazol-2-yl)-5-oxa-2-azaspiro[3.4]octan-7-yl)piperidin-4-yl)-4-fluorophenoxy)-2,2-dimethylpropanenitrile]
5 | – | 630 nM | – | 74 nM | 70% | 60% | COc1ccc(Cl)cc1C1CCN([C@@H]2COC3(C2)CN(c2ncns2)C3)CC1 [Example 5A, (S)-7-(4-(5-chloro-2-methoxyphenyl)piperidin-1-yl)-2-(1,2,4-thiadiazol-5-yl)-5-oxa-2-azaspiro[3.4]octane]
6 | – | 1150 nM | – | 128 nM | 60% | 46% | COCCOc1ccc(F)cc1C1CCN([C@@H]2COC3(C2)CN(c2ncns2)C3)CC1 [Example 5D, (S)-7-(4-(5-fluoro-2-(2-methoxyethoxy)phenyl)piperidin-1-yl)-2-(1,2,4-thiadiazol-5-yl)-5-oxa-2-azaspiro[3.4]octane]
7 | – | 786 nM | – | 58 nM | 66% | 73% | Fc1cc(O[C@@H]2CCOC2)c(C2CCN([C@@H]3COC4(C3)CN(c3nncs3)C4)CC2)cc1F [Example 5M, (S)-7-(4-(4,5-difluoro-2-(((R)-tetrahydrofuran-3-yl)oxy)phenyl)piperidin-1-yl)-2-(1,3,4-thiadiazol-2-yl)-5-oxa-2-azaspiro[3.4]octane]
8 | – | 1760 nM | – | 17 nM | 62% | 68% | Fc1ccc(OC2CC3(COC3)C2)c(C2CCN([C@@H]3COC4(C3)CN(c3ncco3)C4)CC2)c1 [Example 4G, (S)-7-(4-(2-((2-oxaspiro[3.3]heptan-6-yl)oxy)-5-fluorophenyl)piperidin-1-yl)-2-(oxazol-2-yl)-5-oxa-2-azaspiro[3.4]octane]
9 | 71% | 5090 nM | 65% | 289 nM | – | – | CC1(C)C[C@@H](Oc2ccc(F)cc2C2CCN([C@@H]3COC4(C3)CN(c3nnco3)C4)CC2)CO1 (single isomer, unassigned) [Example 2N, (S)-7-(4-(2-(((R)-5,5-dimethyltetrahydrofuran-3-yl)oxy)-5-fluorophenyl)piperidin-1-yl)-2-(1,3,4-oxadiazol-2-yl)-5-oxa-2-azaspiro[3.4]octane or (S)-7-(4-(2-(((S)-5,5-dimethyltetrahydrofuran-3-yl)oxy)-5-fluorophenyl)piperidin-1-yl)-2-(1,3,4-oxadiazol-2-yl)-5-oxa-2-azaspiro[3.4]octane]
10 | – | 227 nM | – | 19 nM | 82% | 73% | COc1ccc(F)cc1C1CCN([C@@H]2COC3(C2)CN(c2ncco2)C3)CC1 [Example 4I, (S)-7-(4-(5-fluoro-2-methoxyphenyl)piperidin-1-yl)-2-(oxazol-2-yl)-5-oxa-2-azaspiro[3.4]octane]

Row | Compound | M1 FDSS PA % [1] | EC50 [1] | M4 FDSS PA % [2] | EC50 [2] | Emax [1] | Emax [2]
11 | c1ccc([C@@H]2CCOC2)c(C2CCN([C@@H]3COC4(C3)CN(c3nnco3)C4)CC2)c1 (single isomer, unassigned) [Example 3B, (S)-2-(1,3,4-oxadiazol-2-yl)-7-(4-(2-((S)-tetrahydrofuran-3-yl)phenyl)piperidin-1-yl)-5-oxa-2-azaspiro[3.4]octane or (S)-2-(1,3,4-oxadiazol-2-yl)-7-(4-(2-((R)-tetrahydrofuran-3-yl)phenyl)piperidin-1-yl)-5-oxa-2-azaspiro[3.4]octane] | 82% | 1120 nM | 86% | 69 nM | – | –
